Data reported in article PMC10999543, “Identification of kinase modulators as host-directed therapeutics against intracellular methicillin-resistant Staphylococcus aureus” (Frontiers in Cellular and Infection Microbiology, 2024).
Like-named read-outs stand apart in the source and are kept apart here.

Columns and labels:
intracellular MRSA = type: cell-based, Staphylococcus aureus; conditions: for %GFP+ rep 1 / z-scoreMRSA+ rep 1: replicate 1; for %GFP+ rep 2 / z-scoreMRSA+ rep 2: replicate 2; for %GFP+ rep 3 / z-scoreMRSA+ rep 3: replicate 3; for z-scoreMRSA+ mean: mean of 3 replicates
In short: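 HeLa cells were infected with GFP-expressing MRSA (mean MOI 6.8) for 1 h, treated with 30 µg/ml gentamicin for 15 min, then incubated overnight at 37°C with kinase inhibitors and 5 µg/ml gentamicin. Flow cytometry gave % GFP-positive cells, with cell count as viability. Hits were z-score ≤ -2 (infection) and ≥ -3 (count) versus DMSO.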

HeLa cells = assay: Compound screen by flow cytometry: HeLa cell count as surrogate readout of cell viability (z-scoreHeLa); type: cell-based, human; conditions: for cell count rep 1 / z-scoreHeLa rep 1: replicate 1; for cell count rep 2 / z-scoreHeLa rep 2: replicate 2; for cell count rep 3 / z-scoreHeLa rep 3: replicate 3; for z-scoreHeLa mean: mean of 3 replicates
In short: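 The viability surrogate was the count of fixed HeLa cells by flow cytometry, converted to z-scores against DMSO controls with values deviating two-fold excluded. Before counting, cells had been infected with MRSA for 1 h and cleared of extracellular bacteria with gentamicin. They were then exposed overnight to kinase inhibitors in triplicate.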

[1] = PKIS compound screen raw data, MRSA-infected HeLa cells
[2] = PKIS compound screen, MRSA-infected HeLa cells
[3] = PKIS compound screen, Yes/No call (effect without cell death)
[4] = PKIS compound screen raw data, HeLa cell count
[5] = PKIS compound screen, HeLa cell count
[6] = Yes/No: effect without cell death
[7] = compound screen, MRSA-infected HeLa cells
[8] = compound screen, HeLa cell count
[9] = PKIS compound screen, Yes/No call
[10] = PKIS compounds raw data, MRSA-infected HeLa cells
[11] = PKIS compounds raw data, HeLa cell count

Compound | %GFP+ rep 1 (intracellular MRSA; [1]) | %GFP+ rep 2 (intracellular MRSA; [1]) | %GFP+ rep 3 (intracellular MRSA; [1]) | hit (intracellular MRSA; [3]) | cell count rep 1 (HeLa cells; [4]) | cell count rep 2 (HeLa cells; [4]) | cell count rep 3 (HeLa cells; [4]) | effect (intracellular MRSA; Yes/No call from z-scoreMRSA+) | hit (intracellular MRSA; [6]) | z-scoreMRSA+ mean (intracellular MRSA; [7]) | z-scoreMRSA+ rep 1 (intracellular MRSA; [7]) | z-scoreMRSA+ rep 2 (intracellular MRSA; [7]) | z-scoreMRSA+ rep 3 (intracellular MRSA; [7]) | cell death (HeLa cells; Yes/No call from z-scoreHeLa) | z-scoreHeLa mean (HeLa cells; [8]) | z-scoreHeLa rep 1 (HeLa cells; [8]) | z-scoreHeLa rep 2 (HeLa cells; [8]) | z-scoreHeLa rep 3 (HeLa cells; [8]) | effect (intracellular MRSA; [9]) | z-scoreMRSA+ mean (intracellular MRSA; PKIS compound screen) | other results
O=C(O[C@H]1CN[C@H](C#Cc2cc3ncnc(Nc4ccc5c(cnn5Cc5ccccc5)c4)c3s2)C1)N1CCOCC1 [GSK200398A] | 12.7% | 13.5% | 14.0% | No | 22424 | 29797 | 30147 |  |  |  |  |  |  |  |  |  |  |  |  |  | z-scoreMRSA+ mean (intracellular MRSA; [2]): -1.64; z-scoreMRSA+ rep 1 (intracellular MRSA; [2]): -1.64; z-scoreMRSA+ rep 2 (intracellular MRSA; [2]): -1.51; z-scoreMRSA+ rep 3 (intracellular MRSA; [2]): -1.76; effect (intracellular MRSA; PKIS compound screen, Yes/No call on z-scoreMRSA+): No; z-scoreHeLa mean (HeLa cells; [5]): -0.74; z-scoreHeLa rep 1 (HeLa cells; [5]): 0.35; z-scoreHeLa rep 2 (HeLa cells; [5]): -0.93; z-scoreHeLa rep 3 (HeLa cells; [5]): -1.65; cell death (HeLa cells; PKIS compound screen, Yes/No call on z-scoreHeLa): No
O=C(NCCNc1ccnc(Nc2ccc(F)cc2)n1)Nc1ccccc1F [GSK1379880A] | 25.7% | 21.6% | 22.7% |  | 4656 | 4642 | 6039 | No | No | 0.00131 | 0.10 | -0.25 | 0.15 | No | 0.33 | 0.22 | 0.26 | 0.51 |  |  | 
COc1cc(Nc2ccnc3ccc(C(F)(F)F)cc23)cc(OC)c1OC [GW577382X] | 19.6% | 17.8% | 18.8% |  | 2914 | 2336 | 2608 | No | No | -1.17 | -1.32 | -1.17 | -1.02 | No | -1.40 | -1.04 | -1.51 | -1.66 |  |  | 
Nc1nccc2scc(-c3ccc4c(c3)CCN4C(=O)Cc3ccccc3)c12 [GSK2576924A] | 25.5% | 24.3% | 22.9% |  | 3006 | 3066 | 3447 | No | No | 0.22 | 0.05 | 0.41 | 0.21 | No | -1.02 | -0.97 | -0.95 | -1.13 |  |  | 
c1ccc(Cc2nc3ccc(Nc4ncnc5ccccc45)cc3[nH]2)cc1 [GR269666A] |  |  |  | No |  |  |  |  |  |  |  |  |  |  |  |  |  |  | No | 0.046 | z-scoreMRSA+ rep 1 (intracellular MRSA; PKIS compound screen): 0.07; z-scoreMRSA+ rep 2 (intracellular MRSA; PKIS compound screen): 0.77; z-scoreMRSA+ rep 3 (intracellular MRSA; PKIS compound screen): -0.71; %GFP+ rep 1 (intracellular MRSA; [10]): 13.4%; %GFP+ rep 2 (intracellular MRSA; [10]): 15.8%; %GFP+ rep 3 (intracellular MRSA; [10]): 13.5%; cell death (HeLa cells; [9]): No; z-scoreHeLa mean (HeLa cells; PKIS compound screen): 0.30; z-scoreHeLa rep 1 (HeLa cells; PKIS compound screen): 0.10; z-scoreHeLa rep 2 (HeLa cells; PKIS compound screen): 0.40; z-scoreHeLa rep 3 (HeLa cells; PKIS compound screen): 0.42; cell count rep 1 (HeLa cells; [11]): 4886; cell count rep 2 (HeLa cells; [11]): 4795; cell count rep 3 (HeLa cells; [11]): 7830
CN1C(=O)C(Nc2ccccc2)=C(c2ccccc2)C1=O [SB-300079] |  |  |  | No |  |  |  |  |  |  |  |  |  |  |  |  |  |  | No | -0.64 | z-scoreMRSA+ rep 1 (intracellular MRSA; PKIS compound screen): -0.99; z-scoreMRSA+ rep 2 (intracellular MRSA; PKIS compound screen): -0.37; z-scoreMRSA+ rep 3 (intracellular MRSA; PKIS compound screen): -0.55; %GFP+ rep 1 (intracellular MRSA; [10]): 22.0%; %GFP+ rep 2 (intracellular MRSA; [10]): 24.1%; %GFP+ rep 3 (intracellular MRSA; [10]): 24.3%; cell death (HeLa cells; [9]): No; z-scoreHeLa mean (HeLa cells; PKIS compound screen): 0.41; z-scoreHeLa rep 1 (HeLa cells; PKIS compound screen): -0.31; z-scoreHeLa rep 2 (HeLa cells; PKIS compound screen): 0.70; z-scoreHeLa rep 3 (HeLa cells; PKIS compound screen): 0.83; cell count rep 1 (HeLa cells; [11]): 5536; cell count rep 2 (HeLa cells; [11]): 7057; cell count rep 3 (HeLa cells; [11]): 6914
